In patent US20260193293A1, “PEPTIDES CAPABLE OF INHIBITING PROTEIN-PROTEIN INTERACTIONS AT GABAB1A SUBUNIT AND USES THEREOF” (UNIVERSITY OF COPENHAGEN, priority 2022, published 2026) one finds Ki data, which are given here for six compounds.

The test has as its target Sushi domains (SD1/2) protein. The experiment in a line: Fluorescence polarization (FP) competition assay with AJAP-1probe, calculated Ki. Type of test: binding. The conditions noted are these: read-out: Ki (nM) mean ± SEM. The gist of the method: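 Ki values were derived from IC50s (sigmoidal fits, ≥ triplicate), with probe Kd obtained by saturation titration of SD1/2. Peptides displaced a 25 nM TAMRA-labelled probe; polarization read at 530/580 nm in 1% BSA-containing PBS, pH 7.4, room temperature.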

[1] abbreviates: Table 4, truncation and elongation scans of APP epitope.
Setting [2] is: Table 6, elongation and truncation scan of PIANP binding epitope.

Read-outs that look alike come from different tables or passages of the source. Residues, ends and D or L forms follow the SMILES beside them.

For `CC[C@H](C)[C@H](NC(=O)[C@H](Cc1c[nH]c2ccccc12)NC(=O)[C@H](CC(=O)O)NC(=O)[C@H](CC(=O)O)NC(=O)[C@H](CC(=O)O)NC(=O)[C@H](CCC(=O)O)NC(=O)[C@H](CCCNC(=N)N)NC(=O)[C@H](CCCNC(=N)N)NC(=O)[C@H](CCCNC(=N)N)NC(=O)[C@H](CCCNC(=N)N)NC(=O)[C@H](CCCNC(=N)N)NC(=O)[C@H](CCCNC(=N)N)NC(=O)[C@H](CCCNC(=N)N)NC(C)=O)C(=O)N[C@@H](CC(=O)O)C(=O)N[C@@H](Cc1c[nH]c2ccccc12)C(=O)NCC(=O)N1CCC[C@H]1C(=O)N[C@H](C(=O)N[C@@H](CO)C(=O)N[C@@H](CC(=O)O)C(=O)N[C@@H](CC(=O)O)C(=O)N[C@@H](CC(=O)O)C(N)=O)[C@@H](C)O` (Ac-RRRRRRREDDDWIDWGPTSDDD-NH2), the Ki (Table 14, CPPs tagged peptides) was 65 ± 2 nM.

For the compound `CC[C@H](C)[C@H](NC(=O)[C@H](Cc1c[nH]c2ccccc12)NC(=O)[C@H](CC(=O)O)NC(=O)[C@H](CC(=O)O)NC(=O)[C@H](CC(=O)O)NC(=O)[C@H](CCC(=O)O)NC(=O)[C@H](CCCNC(=N)N)NC(=O)[C@H](CCCNC(=N)N)NC(=O)[C@H](CCCNC(=N)N)NC(=O)[C@H](CCCNC(=N)N)NC(=O)[C@H](CCCNC(=N)N)NC(=O)[C@H](CCCNC(=N)N)NC(=O)[C@H](CCCNC(=N)N)NC(C)=O)C(=O)N[C@@H](CC(=O)O)C(=O)N[C@@H](Cc1c[nH]c2ccccc12)C(=O)N[C@@H](Cc1ccc(O)cc1)C(=O)N[C@@H](CC(=O)O)C(=O)N[C@@H](CO)C(=O)N[C@@H](CC(=O)O)C(=O)N[C@@H](CC(=O)O)C(=O)N[C@@H](CC(=O)O)C(N)=O` (Ac-RRRRRRREDDDWIDWYDSDDD-NH2), under “Table 14, CPPs tagged peptides”, the Ki was 89.1 ± 3 nM.

Turning to `CC(=O)N[C@@H](CO)C(=O)N[C@@H](C)C(=O)N[C@@H](CC(=O)O)C(=O)N[C@@H](C)C(=O)N[C@@H](CCC(=O)O)C(=O)N[C@@H](CCC(=O)O)C(=O)N[C@@H](CC(=O)O)C(=O)N[C@@H](CC(=O)O)C(=O)N[C@@H](CO)C(=O)N[C@@H](CC(=O)O)C(=O)N[C@H](C(=O)N[C@@H](Cc1c[nH]c2ccccc12)C(=O)N[C@@H](Cc1c[nH]c2ccccc12)C(=O)NCC(=O)NCC(=O)N[C@@H](C)C(=O)N[C@@H](CC(=O)O)C(=O)N[C@H](C(=O)N[C@@H](CC(=O)O)C(=O)N[C@@H](Cc1ccc(O)cc1)C(=O)N[C@@H](C)C(=O)N[C@@H](CC(=O)O)C(N)=O)[C@@H](C)O)C(C)C` (Ac-SADAEEDDSDVWWGGADTDYAD-NH2), under setting [1], the Ki is 284 ± 5 nM.

Consider `CC(=O)N[C@@H](CO)C(=O)N[C@@H](CC(=O)O)C(=O)N[C@H](C(=O)N[C@@H](Cc1c[nH]c2ccccc12)C(=O)N[C@@H](Cc1c[nH]c2ccccc12)C(=O)NCC(=O)NCC(=O)N[C@@H](C)C(=O)N[C@@H](CC(=O)O)C(=O)N[C@H](C(=O)N[C@@H](CC(=O)O)C(=O)N[C@@H](Cc1ccc(O)cc1)C(=O)N[C@@H](C)C(=O)N[C@@H](CC(=O)O)C(N)=O)[C@@H](C)O)C(C)C` (Ac-SDVWWGGADTDYAD-NH2), for which the Ki under setting [1] is 2950 ± 82 nM.

Turning to `CC[C@H](C)[C@H](NC(=O)[C@H](C)NC(=O)[C@H](Cc1c[nH]c2ccccc12)NC(=O)[C@@H]1CCCN1C(=O)[C@H](Cc1ccc(O)cc1)NC(=O)[C@H](CCC(N)=O)NC(=O)[C@H](CO)NC(C)=O)C(=O)N[C@H](C(=O)N[C@@H](Cc1c[nH]c2ccccc12)C(=O)NCC(=O)N1CCC[C@H]1C(=O)N[C@H](C(=O)N[C@H](C(=O)N[C@@H](CO)C(=O)N[C@@H](CCCNC(=N)N)C(=O)N[C@@H](CCC(=O)O)C(=O)N[C@@H](CC(=O)O)C(=O)NCC(N)=O)C(C)C)[C@@H](C)O)C(C)C` (Ac-SQYPWAIVWGPTVSREDG-NH2), under setting [2], the Ki is 762 ± 13 nM.

For `CC[C@H](C)[C@H](NC(=O)[C@H](C)NC(=O)[C@H](Cc1c[nH]c2ccccc12)NC(=O)[C@@H]1CCCN1C(=O)[C@H](Cc1ccc(O)cc1)NC(=O)[C@H](CCC(N)=O)NC(=O)[C@H](CO)NC(=O)[C@H](CO)NC(C)=O)C(=O)N[C@H](C(=O)N[C@@H](Cc1c[nH]c2ccccc12)C(=O)NCC(=O)N1CCC[C@H]1C(=O)N[C@H](C(=O)N[C@H](C(=O)N[C@@H](CO)C(=O)N[C@@H](CCCNC(=N)N)C(=O)N[C@@H](CCC(=O)O)C(=O)N[C@@H](CC(=O)O)C(=O)NCC(N)=O)C(C)C)[C@@H](C)O)C(C)C` (Ac-SSQYPWAIVWGPTVSREDG-NH2), the Ki under setting [2] is 29900 ± 2000 nM.
